Data reported in US20240269298A1, “PHOSPHONYL DERIVATIVE, AND COMPOSITION AND PHARMACEUTICAL APPLICATION THEREOF” (XIZANG HAISCO PHARMACEUTICAL CO., LTD., priority 2021, published 2024).
Where two headings read alike, the source gives them in different places.

Experiments:
[1] = system: NCI-H1975 EGFR-L858R-T790M-C797S cells; test: Inhibitory activity on proliferation of NCI-H1975 EGFR-L858R-T790M-C797S cells (CellTiter-Glo, 72 h); assay type: cell-based; details: Homo sapiens
Outline: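 Cells (1500/well) exposed to graded compound concentrations for 72 h at 37 °C in hygromycin-free RPMI1640 + 10% FBS, 0.1% DMSO vehicle. Viability by CellTiter-Glo luminescence relative to vehicle; IC50 from nonlinear sigmoidal dose-survival fit.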

A431 (EGFR-WT) cells = test: Inhibitory activity on proliferation of A431 (EGFR-WT) cells (CTG, 72 h); assay type: cell-based; details: Homo sapiens, A-431
Outline: (§1)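 IC50 values come from S-shaped dose-survival fits of CTG signal expressed as % of vehicle. Compound exposure lasted 72 h at 37 °C with 0.1% DMSO; seeding was 3000 A431 cells/well in DMEM+10% FBS and 1000 NCI-H1975 cells/well in RPMI1640+10% FBS.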

[2] = system: NCI-H1975 (EGFR-L858R-T790M) cells; test: Inhibitory activity on proliferation of NCI-H1975 (EGFR-L858R-T790M) cells (CTG, 72 h); assay type: cell-based; details: Homo sapiens
Outline: as §1

[3] = Pharmacokinetic test in mice; assay type: in vivo; details: male, ICR, mouse, po, administration i.g. (10 mg/kg), plasma
Outline: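 Male ICR mice (20-25 g), fasted 12-14 h before dosing and fed 4 h after, received a single intravenous or intragastric dose. Orbital plasma sampled from 0 to 24 h (5 min-24 h points); LC-MS/MS quantitation for PK parameters and bioavailability.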

[4] = target: T1, EGFR protein in NCI-H1975 EGFR-L858R-T790M-C797S cells (Homo sapiens, UniProt P00533, C797S/L858R/T790M); test: Degradation activity on EGFR protein in NCI-H1975 EGFR-L858R-T790M-C797S cells, Method II (western blot, 48 h); assay type: cell-based; details: 48 h incubation, EGFR protein relative to DMSO control
T1 construct: expressed in transfected cells; host or cells: NCI-H1975 EGFR-L858R-T790M-C797S (kept under hygromycin selection)
T1 sequence (P00533 25-1210 T790M/C797S/L858R): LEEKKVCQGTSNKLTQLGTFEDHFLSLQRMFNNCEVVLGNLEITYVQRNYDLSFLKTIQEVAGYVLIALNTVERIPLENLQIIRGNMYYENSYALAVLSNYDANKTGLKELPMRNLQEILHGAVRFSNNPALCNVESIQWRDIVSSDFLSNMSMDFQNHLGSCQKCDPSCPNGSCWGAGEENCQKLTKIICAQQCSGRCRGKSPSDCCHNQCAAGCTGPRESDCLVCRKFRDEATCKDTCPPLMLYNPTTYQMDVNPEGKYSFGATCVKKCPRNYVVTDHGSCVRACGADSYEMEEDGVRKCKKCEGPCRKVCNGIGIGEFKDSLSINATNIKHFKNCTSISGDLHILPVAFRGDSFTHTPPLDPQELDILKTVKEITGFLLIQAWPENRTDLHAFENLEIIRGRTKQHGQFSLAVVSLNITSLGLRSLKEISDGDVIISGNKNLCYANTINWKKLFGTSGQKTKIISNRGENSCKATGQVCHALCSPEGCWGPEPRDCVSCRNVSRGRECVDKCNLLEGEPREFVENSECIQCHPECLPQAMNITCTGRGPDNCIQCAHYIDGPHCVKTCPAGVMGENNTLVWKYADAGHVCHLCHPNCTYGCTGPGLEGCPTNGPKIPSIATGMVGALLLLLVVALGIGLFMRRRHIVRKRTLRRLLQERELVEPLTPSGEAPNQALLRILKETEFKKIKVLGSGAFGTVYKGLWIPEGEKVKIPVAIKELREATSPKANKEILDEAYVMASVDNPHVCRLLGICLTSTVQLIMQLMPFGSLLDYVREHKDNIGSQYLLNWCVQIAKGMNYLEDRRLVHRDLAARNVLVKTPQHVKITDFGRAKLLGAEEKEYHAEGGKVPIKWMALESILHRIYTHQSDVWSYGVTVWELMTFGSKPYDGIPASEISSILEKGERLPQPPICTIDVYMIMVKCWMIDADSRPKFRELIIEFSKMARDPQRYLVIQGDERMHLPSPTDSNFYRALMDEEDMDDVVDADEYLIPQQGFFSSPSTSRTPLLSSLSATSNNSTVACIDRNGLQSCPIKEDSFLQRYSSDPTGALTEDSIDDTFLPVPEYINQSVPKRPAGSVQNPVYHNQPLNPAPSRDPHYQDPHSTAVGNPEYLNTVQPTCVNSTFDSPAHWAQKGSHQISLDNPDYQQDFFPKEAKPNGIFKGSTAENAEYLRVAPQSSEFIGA
Description: Protein sample preparation: NCI-H1975 EGFR-L858R-T790M-C797S cells were cultured in an incubator at 37° C. with 5% CO2, and the culture medium was RPMI1640+10% FBS+100 μg/mL hygromycin. The cells in the logarithmic phase were collected, and the cell suspension was adjusted to an appropriate concentration with a hygromycin-free culture medium, plated on a 6-well plate at a density of 350000 cells/well and a volume of 2 mL, and cultured overnight in an incubator at 37° C. with 5% CO2. The next day, the compounds at different concentrations were added. DMSO control wells were provided, wherein the concentration of DMSO in all wells was 0.1%. The 6-well plate was cultured in an incubator at 37° C. with 5% CO2 for 48 h, and then 30 μL of RIPA lysates (Beyotime, Cat. P0013B) containing protease inhibitors (Beyotime, Cat. P0013B) were added. The mixtures were lysed on ice for 30 min. Centrifugation was carried out at 13000 rpm/min at 4° C. for 20 minutes to collect protein supernatant samples, and protein quantification was performed by the BCA method. Western Blot detection samples were prepared.
Western blot detection: 20 μg of protein samples were added to each well, subjected to polyacrylamide gel electrophoresis and transferred to a membrane, and then diluted anti-EGFR (CST, Cat. 4267S) and […] (Kangchen, Cat. KC-5G4) antibodies were added and incubated overnight at 4° C. After washing the membrane, diluted goat anti-rabbit (Licor, Cat. 926-32211) and goat anti-mouse (Licor, Cat. 926-68070) antibodies were added and incubated in the dark for 45 min. Scanning and detection at wavelengths of 700 nm and 800 nm were performed with a far-infrared imaging system (Odyssey).
According to formula (3), the expression level of EGFR protein in the cells relative to the DMSO control group was calculated after incubation with different concentrations of compounds. wherein EGFRcompound was the fluorescence value of EGFR protein after incubation with compounds, and EGFRvehicle was the fluorescence value of EGFR protein in the DMSO control group. Using the Origin 9.2 software, the drug concentration DC50 values when the expression level of EGFR protein was 50% relative to the DMSO control group were calculated.

[5] = read-out: IC50 (value in brackets)

Row | Structure (SMILES) | IC50 ([1]; read-out: IC50 (class symbol)) [nM] | IC50 ([1]; read-out: IC50 (value)) [nM] | IC50 (A431 (EGFR-WT) cells) [nM] | IC50 ([2]; read-out: IC50 (class symbol)) [nM] | IC50 [2, 5] [nM] | AUC(0-t) [3] [ng·h/mL] | DC50 [4] [nM]
1 | COc1cc(N2CCN(C[C@@H]3CCN(c4ccc5c(c4)C(=O)N(C4CCC(=O)NC4=O)C5=O)C3)CC2)c(-c2cnn(C)c2)cc1Nc1ncc(Br)c(Nc2ccc(-c3ccccc3)cc2P(C)(C)=O)n1 (stereo partly drawn) [Compound 103, 5-((S)-3-((4-(4-((5-bromo-4-((3-(dimethylphosphoryl)-[1,1′-biphenyl]-4-yl)amino)pyrimidin-2-yl)amino)-5-methoxy-2-(1-methyl-1H-pyrazol-4-yl)phenyl)piperazin-1-yl)methyl)pyrrolidin-1-yl)-2-(2,6-dioxopiperidin-3-yl)isoindoline-1,3-dione] | < 200 | 101 | ≥ 10000 | < 100 | 61 | 34700 | < 100
2 | COc1cc(N2CCN(C[C@H]3CCN(c4ccc5c(c4)C(=O)N(C4CCC(=O)NC4=O)C5=O)C3)CC2)c(-c2cnn(C)c2)cc1Nc1ncc(Br)c(Nc2ccc(-c3ccccc3)cc2P(C)(C)=O)n1 (stereo partly drawn) [Compound 104, 5-((R)-3-((4-(4-((5-bromo-4-((3-(dimethylphosphoryl)-[1,1′-biphenyl]-4-yl)amino)pyrimidin-2-yl)amino)-5-methoxy-2-(1-methyl-1H-pyrazol-4-yl)phenyl)piperazin-1-yl)methyl)pyrrolidin-1-yl)-2-(2,6-dioxopiperidin-3-yl)isoindoline-1,3-dione] | < 200 | 82 | ≥ 10000 | < 100 | 54 | 47300 | < 100
